Assay results taken from patent US11566007B2, “Ras inhibitors” (Revolution Medicines, Inc., priority 2019, dated 2023).
Read-outs that look alike come from different tables or passages of the source.

What was measured:
NCI-H358 (K-Ras G12C) = assay: CellTiter-Glo cell viability assay, NCI-H358; assay type: cell-based, human; conditions: Homo sapiens, NCI-H358, 120 h
How it was run: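 Compounds dispensed directly onto seeded K-Ras mutant cells; plates read on day 5 after ~30 min equilibration to room temperature, by CellTiter-Glo luminescence. Signal normalized as (sample/mean DMSO)×100, then fitted to a four-parameter logistic curve.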

K-Ras G12C = K-Ras G12C (Homo sapiens (Human), UniProt P01116+P62937, G12C); assay: Ras-Raf (BRAF RBD) disruption / FRET / MOA assay, KRAS G12C; assay type: biochemical
How it was run: (§1)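 TR-FRET read-out: a drop in ratio relative to DMSO wells marks disruption of the Ras:RAF complex, reported as IC50. Compounds (3-fold series, 10 points, top 30 μM final) incubated 3 h at 25° C before Eu-anti-His 10 nM and APC-anti-GST 50 nM, 1.5 h more.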

K-Ras G13C = K-Ras G13C (Homo sapiens (Human), UniProt P01116+P62937, G13C); assay: Ras-Raf (BRAF RBD) disruption / FRET / MOA assay, KRAS G13C; assay type: biochemical
How it was run: as §1

KRAS G12S = KRAS G12S (Homo sapiens (Human), UniProt P01116+P62937, G12S); assay: Ras-Raf (BRAF RBD) disruption / FRET / MOA assay, KRAS G12S; assay type: biochemical; conditions: Ras-Raf disruption/FRET/MOA assay; class symbols; read-out: KRAS G12S FRET data IC50
How it was run: as §1

KRAS G12V = KRAS G12V (Homo sapiens (Human), UniProt P01116+P62937, G12V); assay: Ras-Raf (BRAF RBD) disruption / FRET / MOA assay, KRAS G12V; assay type: biochemical; conditions: read-out: IC50* KRAS G12V FRET data
How it was run: as §1

KRAS WT = KRAS WT (Homo sapiens (Human), UniProt P01116+P62937); assay: Ras-Raf (BRAF RBD) disruption / FRET / MOA assay, KRAS WT; assay type: biochemical; conditions: read-out: IC50* KRAS WT FRET data
How it was run: as §1

KRAS G13D = KRAS G13D (Homo sapiens (Human), UniProt P01116+P62937, G13D); assay: Ras-Raf (BRAF RBD) disruption / FRET / MOA assay, KRAS G13D; assay type: biochemical; conditions: read-out: IC50* KRAS G13D FRET data
How it was run: as §1

NRAS WT = NRAS WT (Homo sapiens (Human), UniProt P01111+P62937); assay: Ras-Raf (BRAF RBD) disruption / FRET / MOA assay, NRAS WT; assay type: biochemical; conditions: read-out: IC50* NRAS WT FRET data
How it was run: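 Compounds were tested as a 10-point 3-fold dilution series from 30 μM final for their ability to drive ternary complex formation between nucleotide-loaded Ras and cyclophilin A, displacing the BRAF RBD. After 3 h at 25° C., anti-His Eu-W1024 (10 nM) and anti-GST allophycocyanin (50 nM) were added for 1.5 h. A TR-FRET ratio decrease versus DMSO gave IC50.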

[1] = NCI-H358, 5-day treatment, class symbols, read-out: Additional H358 Cell Viability assay data (K-Ras G12C, IC50)
[2] = KRAS G12C, Ras-Raf disruption/FRET/MOA assay, read-out: IC50* KRAS G12C FRET data
[3] = KRAS G13C, Ras-Raf disruption/FRET/MOA assay, read-out: IC50* KRAS G13C FRET data

K-Ras G12C, sequence (P01116-2 other isoform, or with tags, fused parts or gaps G12C): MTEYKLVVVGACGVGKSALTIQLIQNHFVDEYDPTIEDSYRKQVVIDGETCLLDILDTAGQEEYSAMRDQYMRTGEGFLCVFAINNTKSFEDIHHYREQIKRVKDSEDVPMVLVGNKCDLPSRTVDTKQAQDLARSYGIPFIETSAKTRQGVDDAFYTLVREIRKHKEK
K-Ras G12C, sequence (P62937 whole entry): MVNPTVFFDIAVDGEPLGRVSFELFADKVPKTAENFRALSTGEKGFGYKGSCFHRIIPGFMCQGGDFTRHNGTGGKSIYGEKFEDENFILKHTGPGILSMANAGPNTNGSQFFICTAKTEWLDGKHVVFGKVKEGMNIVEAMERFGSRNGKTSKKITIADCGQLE
KRAS G12V, sequence (P01116-2 other isoform, or with tags, fused parts or gaps G12V): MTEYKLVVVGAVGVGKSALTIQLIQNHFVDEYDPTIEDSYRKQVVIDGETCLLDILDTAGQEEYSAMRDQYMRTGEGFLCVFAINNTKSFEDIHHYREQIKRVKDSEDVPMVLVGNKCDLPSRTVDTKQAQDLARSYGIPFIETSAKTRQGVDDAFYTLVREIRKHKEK
KRAS G12V, sequence (P62937 whole entry): as the sequence (P62937 whole entry) above
KRAS WT, sequence (P01116-2 other isoform, or with tags, fused parts or gaps): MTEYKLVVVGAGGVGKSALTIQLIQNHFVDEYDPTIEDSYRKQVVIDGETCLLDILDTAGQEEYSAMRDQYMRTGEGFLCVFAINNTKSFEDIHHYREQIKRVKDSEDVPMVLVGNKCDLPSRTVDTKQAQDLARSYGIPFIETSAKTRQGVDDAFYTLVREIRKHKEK
KRAS WT, sequence (P62937 whole entry): as the sequence (P62937 whole entry) above
KRAS G12S, sequence (P01116-2 other isoform, or with tags, fused parts or gaps G12S): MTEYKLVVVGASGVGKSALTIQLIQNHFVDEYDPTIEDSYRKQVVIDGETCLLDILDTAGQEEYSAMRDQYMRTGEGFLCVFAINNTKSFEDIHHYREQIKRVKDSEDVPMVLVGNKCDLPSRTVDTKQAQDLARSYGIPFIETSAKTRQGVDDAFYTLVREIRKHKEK
KRAS G12S, sequence (P62937 whole entry): as the sequence (P62937 whole entry) above
K-Ras G13C, sequence (P01116-2 other isoform, or with tags, fused parts or gaps G13C): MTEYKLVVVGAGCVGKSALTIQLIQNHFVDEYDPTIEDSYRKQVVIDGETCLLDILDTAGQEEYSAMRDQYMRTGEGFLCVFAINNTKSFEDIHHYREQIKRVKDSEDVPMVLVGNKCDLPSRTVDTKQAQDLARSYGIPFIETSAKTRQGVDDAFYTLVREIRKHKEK
K-Ras G13C, sequence (P62937 whole entry): as the sequence (P62937 whole entry) above
KRAS G13D, sequence (P01116-2 other isoform, or with tags, fused parts or gaps G13D): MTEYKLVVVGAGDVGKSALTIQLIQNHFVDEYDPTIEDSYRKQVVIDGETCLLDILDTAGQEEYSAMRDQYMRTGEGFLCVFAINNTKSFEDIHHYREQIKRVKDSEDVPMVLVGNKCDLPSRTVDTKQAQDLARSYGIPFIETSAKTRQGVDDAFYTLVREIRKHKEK
KRAS G13D, sequence (P62937 whole entry): as the sequence (P62937 whole entry) above
NRAS WT, sequence (P01111 whole entry): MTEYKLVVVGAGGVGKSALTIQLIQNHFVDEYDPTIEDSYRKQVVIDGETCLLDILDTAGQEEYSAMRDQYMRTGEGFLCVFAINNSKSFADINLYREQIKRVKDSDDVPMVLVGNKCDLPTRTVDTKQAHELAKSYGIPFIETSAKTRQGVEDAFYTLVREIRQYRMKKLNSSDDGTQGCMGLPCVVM
NRAS WT, sequence (P62937 whole entry): as the sequence (P62937 whole entry) above

| SMILES | IC50 (NCI-H358 (K-Ras G12C); [1]) [µM] | IC50 (K-Ras G12C; [2]) [nM] | IC50 (K-Ras G13C; [3]) [nM] | IC50 (KRAS G12S) [nM] | IC50 (KRAS G12V) [nM] | IC50 (KRAS WT) [nM] | IC50 (KRAS G13D) [nM] | IC50 (NRAS WT) [nM] | IC50 (NCI-H358 (K-Ras G12C); read-out: H358 Cell Viability (K-Ras G12C) IC50, uM, NCI-H358, 5-day treatment) [µM] | IC50 (K-Ras G12C; with Cyclophilin A, BRAF RBD, read-out: FRET (K-Ras G12C) IC50) [nM] | IC50 (K-Ras G13C; with Cyclophilin A, BRAF RBD, read-out: FRET (K-Ras G13C) IC50) [nM] | IC50 (NCI-H358 (K-Ras G12C); read-out: Additional H358 Cell Viability assay data (K-Ras G12C, IC50, uM), NCI-H358, 5-day treatment, class symbols) [µM] |
| --- | --- | --- | --- | --- | --- | --- | --- | --- | --- | --- | --- | --- |
| CCn1c(-c2cccnc2[C@H](C)OC)c2c3cc(ccc31)-c1csc(n1)C[C@H](NC(=O)[C@H](C(C)C)N(C)C(=O)N1CCC13CN(C(=O)/C=C/CN1CCOCC1)C3)C(=O)N1CCC[C@H](N1)C(=O)OCC(C)(C)C2 (atropisomer, axis not shown) [Example A611] | 0.01 to 0.1 | 100 to 1000 | 100 to 1000 | 100 to 1000 | 100 to 1000 | 100 to 1000 | 100 to 1000 | 100 to 1000 | – | – | – | – |
| C=CC(=O)N1CCC2(CCN(C(=O)N(C)[C@H](C(=O)N[C@H]3Cc4cccc(c4)-c4ccc5c(c4)c(c(-c4cccnc4[C@H](C)OC)n5CC)CC(C)(C)COC(=O)[C@@H]4CCCN(N4)C3=O)C(C)C)CC2)C1 (atropisomer, axis not shown) [Example A554] | 0.1 to 1 | 100 to 1000 | 10 to 100 | 100 to 1000 | 100 to 1000 | 100 to 1000 | 1000 to 10000 | 100 to 1000 | – | – | – | – |
| CCn1c(-c2cccnc2[C@H](C)OC)c2c3cc(ccc31)N1CCC[C@@H](C[C@H](NC(=O)[C@H](C(C)C)N(C)C(=O)[C@H]3CCN(C(=O)C#CC(C)(C)N4CCC4)C3)C(=O)N3CCC[C@H](N3)C(=O)OCC(C)(C)C2)C1 (atropisomer, axis not shown) [Example A617] | 0.01 to 0.1 | 10 to 100 | > 10000 | > 10000 | > 10000 | > 10000 | > 10000 | > 10000 | – | – | – | – |
| C=CC(=O)N1CCOC2(CCN(C(=O)N(C)[C@H](C(=O)N[C@H]3Cc4cccc(n4)-c4ccc5c(c4)c(c(-c4cccnc4[C@H](C)OC)n5CC(F)(F)F)CC(C)(C)COC(=O)[C@@H]4CCCN(N4)C3=O)C(C)C)CC2)C1 (atropisomer, axis not shown) [Example A607, 4-acryloyl-N-((2S)-1-(((6^3S,4S)-1^2-(2-((S)-1-methoxyethyl)pyridin-3-yl)-10,10-dimethyl-5,7-dioxo-1^1-(2,2,2-trifluoroethyl)-6^1,6^2,6^3,6^4,6^5,6^6-hexahydro-1^1H-8-oxa-1(5,3)-indola-6(1,3)-pyridazina-2(2,6)-pyridinacycloundecaphane-4-yl)amino)-3-methyl-1-oxobutan-2-yl)-N-methyl-1-oxa-4,9-diazaspiro[5.5]undecane-9-carboxamide] | 0.01 to 0.1 | 100 to 1000 | 10 to 100 | 1000 to 10000 | 1000 to 10000 | 100 to 1000 | 1000 to 10000 | 100 to 1000 | – | – | – | – |
| C=CC(=O)N1CCOC2(CCN(C(=O)N(C)[C@H](C(=O)N[C@H]3Cc4cc(C(F)F)cc(n4)-c4ccc5c(c4)c(c(-c4cccnc4[C@H](C)OC)n5CC(F)(F)F)CC(C)(C)COC(=O)[C@@H]4CCCN(N4)C3=O)C(C)C)CC2)C1 (atropisomer, axis not shown) [Example A541] | 0.01 to 0.1 | 100 to 1000 | 10 to 100 | 100 to 1000 | 1000 to 10000 | 100 to 1000 | 1000 to 10000 | 100 to 1000 | – | – | – | – |
| CCn1c(-c2cccnc2[C@H](C)OC)c2c3cc(ccc31)-c1cccc(c1)C[C@H](NC(=O)[C@@H](COC1CN(C(=O)C#CC(C)(C)O)C1)C(C)C)C(=O)N1CCC[C@H](N1)C(=O)OCC(C)(C)C2 (atropisomer, axis not shown) [Example A708] | 0.01 to 0.1 | 100 to 1000 | 1000 to 10000 | > 10000 | 1000 to 10000 | 1000 to 10000 | > 10000 | 1000 to 10000 | – | – | – | – |
| C=CC(=O)N1CC[C@H](C(=O)N(C)[C@H](C(=O)N[C@H]2Cc3cc(O)cc(c3)-c3ccc4c(c3)c(c(-c3cccnc3)n4[C@H](C)C#N)CC(C)(C)COC(=O)[C@@H]3CCCN(N3)C2=O)C(C)C)C1 [Example A193] | – | 10 to 100 | 1000 to 10000 | 100 to 1000 | 100 to 1000 | 1000 to 10000 | 1000 to 10000 | 1000 to 10000 | 0.054 | 295 | 10200 | – |
| C=CC(=O)N1CC[C@H](C(=O)N(C)[C@H](C(=O)N[C@H]2Cc3nc(ns3)-c3ccc4c(c3)c(c(-c3cccnc3[C@H](C)OC)n4CC)CC(C)(C)COC(=O)[C@@H]3CCCN(N3)C2=O)C(C)C)C1 (atropisomer, axis not shown) [Example A202] | 0.01 to 0.1 | 1000 to 10000 | > 10000 | 1000 to 10000 | > 10000 | > 10000 | > 10000 | 1000 to 10000 | – | – | – | – |
| C=CC(=O)N1CCCC2(CCN(C(=O)N(C)[C@H](C(=O)N[C@H]3Cc4nc(cs4)-c4ccc5c(c4)c(c(-c4cccnc4[C@H](C)OC)n5CC)CC(C)(C)COC(=O)[C@@H]4CCCN(N4)C3=O)C(C)C)CC2)C1 (atropisomer, axis not shown) [Example A635] | 0.1 to 1 | 100 to 1000 | 100 to 1000 | 100 to 1000 | 100 to 1000 | 100 to 1000 | 1000 to 10000 | 100 to 1000 | – | – | – | – |
| C=CC(=O)N1CCC(F)(C(=O)N(C)[C@H](C(=O)N[C@H]2C[C@H]3CN(CCO3)c3ccc4c(c3)c(c(-c3cccnc3[C@H](C)OC)n4CC)CC(C)(C)COC(=O)[C@@H]3CCCN(N3)C2=O)C(C)C)CC1 (atropisomer, axis not shown) [Example A722, 1-acryloyl-N-((2S)-1-(((6^3S,4S)-1^1-ethyl-1^2-(2-((S)-1-methoxyethyl)pyridin-3-yl)-10,10-dimethyl-5,7-dioxo-6^1,6^2,6^3,6^4,6^5,6^6-hexahydro-1^1H-8-oxa-2(4,2)-morpholina-1(5,3)-indola-6(1,3)-pyridazinacycloundecaphane-4-yl)amino)-3-methyl-1-oxobutan-2-yl)-4-fluoro-N-methylpiperidine-4-carboxamide] | 0.01 to 0.1 | 10 to 100 | 100 to 1000 | 1000 to 10000 | 1000 to 10000 | 100 to 1000 | 1000 to 10000 | 100 to 1000 | – | – | – | – |
| C=CC(=O)N1CC[C@]2(CCN2C(=O)N(C)[C@H](C(=O)N[C@H]2Cc3nc(cs3)-c3ccc4c(c3)c(c(-c3cccnc3[C@H](C)OC)n4CC)CC(C)(C)COC(=O)[C@@H]3CCCN(N3)C2=O)C(C)C)C1 (atropisomer, axis not shown) [Example A662] | 0.01 to 0.1 | 10 to 100 | 100 to 1000 | 100 to 1000 | 100 to 1000 | 100 to 1000 | 100 to 1000 | 100 to 1000 | – | – | – | – |
| CCn1c(-c2cccnc2[C@H](C)OC)c2c3cc(ccc31)-c1cccc(c1)C[C@H](NC(=O)[C@H](C(C)C)N1CC[C@]3(CCN(C(=O)C#C[C@@H]4COCCN4C)C3)C1=O)C(=O)N1CCC[C@H](N1)C(=O)OCC(C)(C)C2 (atropisomer, axis not shown) [Example A569] | – | 10 to 100 | 1000 to 10000 | 1000 to 10000 | > 10000 | 10 to 100 | > 10000 | > 10000 | – | – | – | 0.01 to 0.1 |
| C=CC(=O)N1CCO[C@H]2CN(C(=O)N(C)[C@H](C(=O)N[C@H]3Cc4nc(n(C)n4)-c4ccc5c(c4)c(c(-c4cccnc4[C@H](C)OC)n5CC(F)(F)F)CC(C)(C)COC(=O)[C@@H]4CCCN(N4)C3=O)C(C)C)C[C@H]21 (atropisomer, axis not shown) [Example A575] | 0.01 to 0.1 | 10 to 100 | 10 to 100 | 100 to 1000 | 1000 to 10000 | 100 to 1000 | 1000 to 10000 | 100 to 1000 | – | – | – | – |
| C=CC(=O)N(C)[C@@H]1C[C@H](C)N(C(=O)N(C)[C@H](C(=O)N[C@H]2Cc3nc(cs3)-c3ccc4c(c3)c(c(-c3cccnc3[C@H](C)OC)n4CC)CC(C)(C)COC(=O)[C@@H]3CCCN(N3)C2=O)C(C)C)C1 (atropisomer, axis not shown) [Example A633] | 0.01 to 0.1 | 100 to 1000 | 100 to 1000 | 100 to 1000 | 100 to 1000 | 10 to 100 | 100 to 1000 | 10 to 100 | – | – | – | – |
